Source: PMC3199943, “Screening the MayBridge Rule of 3 Fragment Library for Compounds That Interact with the Trypanosoma brucei myo-Inositol-3-Phosphate Synthase and/or Show Trypanocidal Activity” (Molecular Biology International, 2011)
Like-named read-outs stand apart in the source and are kept apart here.

Legend:
TbINO1 = biological target: T1, TbINO1 (Trypanosoma brucei brucei, UniProt Q5QQ46); assay: biochemical; type: binding
T1 sequence (Q5QQ46 1-528): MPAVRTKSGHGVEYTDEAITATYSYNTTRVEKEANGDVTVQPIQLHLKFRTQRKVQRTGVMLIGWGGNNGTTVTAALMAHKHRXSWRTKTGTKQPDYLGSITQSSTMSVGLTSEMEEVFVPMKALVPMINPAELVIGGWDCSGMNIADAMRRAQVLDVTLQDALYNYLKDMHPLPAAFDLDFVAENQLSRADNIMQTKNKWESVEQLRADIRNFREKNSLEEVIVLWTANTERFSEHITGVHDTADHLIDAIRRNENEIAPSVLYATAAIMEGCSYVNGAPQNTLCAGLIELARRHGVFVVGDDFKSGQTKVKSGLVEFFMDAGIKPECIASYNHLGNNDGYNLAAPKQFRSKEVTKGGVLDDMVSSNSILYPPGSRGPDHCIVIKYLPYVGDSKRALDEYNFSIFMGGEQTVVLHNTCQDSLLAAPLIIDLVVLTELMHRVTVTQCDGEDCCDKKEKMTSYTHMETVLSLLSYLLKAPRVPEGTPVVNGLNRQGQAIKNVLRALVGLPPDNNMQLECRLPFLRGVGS

HeLa cells = assay: cells; settings: for viability at 500 µM / CC50: Homo sapiens, HeLa; for viability at 500 µM: 65 h; for HeLa Cells Alamar Blue: Supplementary Table 1; for CC50: read-out: HeLa ED50
Procedure, shortened: (§1)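 Alamar Blue read-out after a 5 h dye incubation that followed ~65 h compound exposure. Cells: HeLa or A549, 2 × 10^4/well, DMEM + 10% FCS + 2 mM L-Glutamine.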

A549 cells = assay: Cytotoxicity against A549 cells, Alamar Blue; type: cell-based; settings: Supplementary Table 1, compound 0.5 mM, percentage of controls (n=1); for viability at 500 µM: Homo sapiens, A549, 65 h
Procedure, shortened: as §1

[1] = read-out: Tb Ino1 Tm Shift [˚C]
[2] = read-out: HeLa Cells Alamar Blue
[3] = Supplementary Table 1, compound 1mM, mean ± SD from Boltzman curve fitting
[4] = compound 0.5 mM, percentage of controls, mean ± SD (n=3) or SE (n=2)
[5] = read-out: HeLa Cells Alamar Blue (% survival)

Row | Structure (SMILES) | ΔTm at 1000 µM (TbINO1; [1]) | viability at 500 µM (HeLa cells; [2]) | viability at 500 µM (A549 cells) | further results
1 | Cc1ccc(CN)cc1Cl [compound 233, 3‐chloro‐4‐methylbenzylamine] | 0.11 ± 0.08 °C | 91.7 ± 12.6% | 163% | –
2 | O=C(O)c1ccco1 [compound 27, 2‐furoic acid] | 0.17 ± 0.06 °C | 95.7 ± 9.4% | 107% | –
3 | Cc1cccc(O)n1 [compound 19, 6‐methylpyridin‐2‐ol] | 0.09 ± 0.08 °C | 103 ± 7.6% | 85.6% | –
4 | OCc1ccc(-c2cccs2)cc1 [compound 544, (4‐thien‐2‐ylphenyl)methanol] | 0.16 ± 0.08 °C | 74.7 ± 10.2% | 80% | –
5 | CC1CNC(C)CN1 (centres unmarked) [compound 36, 2,5‐dimethylpiperazine] | 0.18 ± 0.08 °C | 91.3 ± 12.1% | 76.6% | –
6 | Nc1ccccc1-n1ccnc1 [compound 262, 2‐(1H‐imidazol‐1‐yl)aniline] | 0.62 ± 0.08 °C | 66.5 ± 16.1% | 76% | –
7 | O=C(O)C1CCCO1 (centres unmarked) [compound 42, tetrahydro‐2‐furancarboxylic acid] | 0.3 ± 0.08 °C | 81.9 ± 17% | 75.1% | –
8 | OCc1ccc(N2CCCC2)cc1 [compound 427, [4‐(1‐pyrrolidinyl)phenyl]methanol] | 0.35 ± 0.06 °C | 59.8 ± 14.4% | 64.2% | –
9 | CN(C)C1(CN)CCSC1 (centres unmarked) [compound 268, 3‐(aminomethyl)‐N,N‐dimethyltetrahydro‐3‐thiophenamine] | – | – | – | Tb Ino1 Tm Shift [˚C] (TbINO1; [3]): 0.32 ± 0.07 °C; HeLa Cells Alamar Blue (HeLa cells; [4]): 88.4 ± 17.9 percentage of controls; A549 Cells Alamar Blue (A549 cells): 87.3 percentage of controls
10 | CCOC(=O)c1[nH]c(C)c(CC)c1C [compound 594, ethyl 4‐ethyl‐3,5‐dimethyl‐1H‐pyrrole‐2‐carboxylate] | – | – | – | Tb Ino1 Tm Shift [˚C] (TbINO1; [3]): 0.17 ± 0.08 °C; HeLa Cells Alamar Blue (HeLa cells; [4]): 79.8 ± 6.6 percentage of controls; A549 Cells Alamar Blue (A549 cells): 59.9 percentage of controls
11 | OCc1cccc2c1OCC2 [compound 186, 2,3-Dihydrobenzo[b]furan-7-methanol] | – | 86.5 ± 14.8% | 41.8% | ΔTm at 1000 µM (TbINO1; read-out: TbIno1 Tm shift [°C]): 4.09 ± 0.09 °C; viability at 500 µM (HeLa cells; [5]): 86.5 ± 14.8%
12 | Cc1occc(=O)c1O [compound 74, 3‐hydroxy‐2‐methyl‐4H‐pyran‐4‐one] | 1.13 ± 0.08 °C | 107 ± 10.5% | 105% | –
13 | CSc1ccc(C(=O)O)s1 [compound 389, 5‐(methylthio)thiophene‐2‐carboxylic acid] | – | – | – | Tb Ino1 Tm Shift [˚C] (TbINO1; [3]): 0.43 ± 0.05 °C; HeLa Cells Alamar Blue (HeLa cells; [4]): 104.2 ± 16.4 percentage of controls; A549 Cells Alamar Blue (A549 cells): 125.1 percentage of controls
14 | Cc1cc(CO)nn1C [compound 76, (1,5‐dimethyl‐1H‐pyrazol‐3‐yl)methanol] | 0.56 ± 0.08 °C | 99.6 ± 4.5% | 100% | –
15 | COC(=O)c1ccoc1C [compound 132, methyl 2-methyl-3-furoate] | – | 71.3 ± 11.3% | 100% | ΔTm at 1000 µM (TbINO1; read-out: TbIno1 Tm shift [°C]): 1.64 ± 0.09 °C; viability at 500 µM (HeLa cells; [5]): 71.3 ± 11.3%
16 | Oc1noc2ccccc12 [compound 112, benzo[d]isoxazol‐3‐ol] | 0.23 ± 0.06 °C | – | 76.7% | viability at 500 µM (HeLa cells; read-out: HeLa Cells Alamar Blue, Supplementary Table 1, compound 0.5 mM, percentage of controls, mean ± SD (n=3) or SE (n=2)): 83 ± 11.2%
17 | Nc1cccc(Oc2ccccn2)c1 [compound 506, 3‐(pyridin‐2‐yloxy)aniline] | 0.23 ± 0.09 °C | 99.2 ± 16.2% | 72.5% | –
18 | Cc1nc(C(C)(C)C)cs1 [compound 229, 4‐(tert‐butyl)‐2‐methyl‐1,3‐thiazole] | 0.23 ± 0.07 °C | 108 ± 11.8% | 65.6% | –
19 | Cn1nc(-c2cccs2)cc1CO [compound 587, (1‐methyl‐3‐thien‐2‐yl‐1H‐pyrazol‐5‐yl)methanol] | – | – | – | Tb Ino1 Tm Shift [˚C] (TbINO1; [3]): 0.36 ± 0.07 °C; HeLa Cells Alamar Blue (HeLa cells; [4]): 91.6 ± 8.8 percentage of controls; A549 Cells Alamar Blue (A549 cells): 65.8 percentage of controls
20 | O=C(O)c1ccc(-c2ccccc2)nc1 [compound 610, 6‐phenylnicotinic acid] | 0.46 ± 0.06 °C | 82.3 ± 8.2% | 125% | –
21 | Cc1nc(C(N)=S)c[nH]1 [compound 135, 2-methyl-1H-imidazole-4-carbothioamide] | – | 90.3 ± 10.9% | 102% | ΔTm at 1000 µM (TbINO1; read-out: TbIno1 Tm shift [°C]): 1.74 ± 0.09 °C; viability at 500 µM (HeLa cells; [5]): 90.3 ± 10.9%

Row | Structure (SMILES) | ΔTm at 1000 µM (TbINO1; [1]) | viability at 500 µM (HeLa cells; [2]) | viability at 500 µM (A549 cells) | further results
22 | Cc1ccc(N)nc1 [compound 16, 5‐methylpyridin‐2‐amine] | 0.12 ± 0.06 °C | 101 ± 1.1% | 89.4% | –
23 | OCc1ccc(-c2ccco2)cc1 [compound 383, [4-(2-furyl)phenyl]methanol] | – | 20 ± 10.6% | 89.6% | ΔTm at 1000 µM (TbINO1; read-out: TbIno1 Tm shift [°C]): 3.45 ± 0.09 °C; viability at 500 µM (HeLa cells; [5]): 20 ± 10.6%; CC50 (HeLa cells): 292 ± 31 µM
24 | O=C(O)c1cccc(-n2cccc2)c1 [compound 511, 3‐(1H‐pyrrol‐1‐yl)benzoic acid] | 0.6 ± 0.08 °C | 102 ± 12.3% | 73% | –
25 | CC(=O)c1nccnc1C [compound 117, 1‐(3‐methylpyrazin‐2‐yl)ethan‐1‐one] | 0.4 ± 0.06 °C | 87.6 ± 11.3% | 88.3% | –
26 | OCc1ccc2[nH]cnc2c1 [compound 170, 1H‐benzimidazol‐5‐ylmethanol] | 0.15 ± 0.07 °C | 98.3 ± 4.2% | 92% | –
27 | O=C(O)c1sccc1-n1cccc1 [compound 577, 3-(1H-pyrrol-1-yl)thiophene-2-carboxylic acid] | – | 103 ± 2.8% | 90.4% | ΔTm at 1000 µM (TbINO1; read-out: TbIno1 Tm shift [°C]): 2.78 ± 0.08 °C; viability at 500 µM (HeLa cells; [5]): 103 ± 2.8%; CC50 (HeLa cells): > 20000 µM
28 | c1ccc2c(c1)CCOC2 [compound 110, 3,4‐dihydro‐1H‐benzo[c]pyran] | 0.34 ± 0.06 °C | 88.7 ± 19.2% | 114% | –
29 | CC(=O)c1cc(F)cc(F)c1O [compound 360, 1‐(3,5‐difluoro‐2‐hydroxyphenyl)ethan‐1‐one] | – | – | – | Tb Ino1 Tm Shift [˚C] (TbINO1; [3]): 1.29 ± 0.05 °C; HeLa Cells Alamar Blue (HeLa cells; [4]): 103.5 ± 10 percentage of controls; A549 Cells Alamar Blue (A549 cells): 149.7 percentage of controls
30 | Cc1cc2c(N)cccc2nn1 [compound 261, 3-methylcinnolin-5-amine] | – | 62.5 ± 14.7% | 74.1% | ΔTm at 1000 µM (TbINO1; read-out: TbIno1 Tm shift [°C]): 1.83 ± 0.11 °C; viability at 500 µM (HeLa cells; [5]): 62.5 ± 14.7%; CC50 (HeLa cells): 726 ± 64 µM
31 | CNCc1cccc(-c2cccnc2)c1 [compound 606, N‐methyl‐N‐(3‐pyridin‐3‐ylbenzyl)amine] | 0.07 ± 0.08 °C | 70.8 ± 5.8% | 69.8% | –
32 | C#CCN1CCS(=O)(=O)CC1 [compound 379, 4‐(Prop‐2‐ynyl)thiomorpholine 1,1‐dioxide] | – | – | – | Tb Ino1 Tm Shift [˚C] (TbINO1; [3]): 0.32 ± 0.08 °C; HeLa Cells Alamar Blue (HeLa cells; [4]): 95.6 ± 12.9 percentage of controls; A549 Cells Alamar Blue (A549 cells): 154 percentage of controls
33 | N#CCc1ccccn1 [compound 46, 2‐(2‐pyridyl)acetonitrile] | 1.11 ± 0.24 °C | 63.2 ± 17.9% | 82.6% | –
34 | Cc1ccc(C#N)c(N)c1 [compound 97, 2-amino-4-methylbenzonitrile] | – | 81.4 ± 7.4% | 96.2% | ΔTm at 1000 µM (TbINO1; read-out: TbIno1 Tm shift [°C]): 1.58 ± 0.07 °C; viability at 500 µM (HeLa cells; [5]): 81.4 ± 7.4%
35 | Cc1csc(C(=O)O)c1 [compound 139, 4‐methylthiophene‐2‐carboxylic acid] | 0.08 ± 0.07 °C | 70.9 ± 10.7% | 121% | –
36 | CC(=O)c1ccc(F)c(F)c1 [compound 234, 1‐(3,4‐difluorophenyl)ethan‐1‐one] | 0.14 ± 0.08 °C | 90.3 ± 14% | 73.9% | –
37 | Cc1ccc(CO)o1 [compound 30, (5-methyl-2-furyl)methanol] | – | 23.3 ± 18.6% | 23.7% | ΔTm at 1000 µM (TbINO1; read-out: TbIno1 Tm shift [°C]): 3.79 ± 0.08 °C; viability at 500 µM (HeLa cells; [5]): 23.3 ± 18.6%
38 | COC(=O)c1ccsc1N [compound 242, methyl 2‐aminothiophene‐3‐carboxylate] | 0.34 ± 0.08 °C | 37 ± 6.1% | 80.5% | –
39 | NC1Cc2ccccc2C1 [compound 104, indan‐2‐amine] | – | 70 ± 18.5% | 123% | ΔTm at 1000 µM (TbINO1; Supplementary Table 1, compound 1mM, mean ± SD from Boltzman curve fitting, read-out: Tb Ino1 Tm Shift [˚C]): 0.89 ± 0.05 °C
40 | NC(=S)c1cccc2c1OCCO2 [compound 592, 2,3‐dihydro‐1,4‐benzodioxine‐5‐carbothioamide] | – | – | – | Tb Ino1 Tm Shift [˚C] (TbINO1; [3]): 0.18 ± 0.07 °C; HeLa Cells Alamar Blue (HeLa cells; [4]): 54.3 ± 15.7 percentage of controls; A549 Cells Alamar Blue (A549 cells): 39.8 percentage of controls
41 | Cc1csc2ncnc(Cl)c12 [compound 486, 4‐chloro‐5‐methylthieno[2,3‐d]pyrimidine] | 0.24 ± 0.07 °C | 101 ± 12.2% | 111% | –
